# Experimental data reported in patent publication US20050158323A1, “Methods of killing tumor cells by targeting internal antigens exposed on apoptotic tumor cells” (Vaccinex, Inc., priority 2003, published 2005).
# Like-named read-outs stand apart in the source and are kept apart here.
# B1: 1B3: mouse monoclonal anti-C35 antibody from hybridoma 1B3, gamma1 isotype, kappa light chain; VH SEQ ID NO:8, VK SEQ ID NO:10 (antibody, listed as Mus sp., V domains shown)
# VH: EVQLQESGPSLVKPSQTLSLTCSVTGDSITSGYWNWIRKFPGNKLEYVGYISYSGGTYYNPSLKSRISITRDTSKNHYYLQLNSVTTEDTATYYCARGAYYGGAFFPYFDVWGAGTTVTVSS
# VL: DVQITQSPSFLAASPGETITINCRASKYISKHLVWYQEKPGETKKLLIYSGSTLQSGLPSRFSGSGSGTDFTLTISSLEPEDFAMYYCQQHNEYPLTFGAGTKLELK
# B2: MAb11 (1B3): 1B3 anti-C35 immunoglobulin variable regions linked to human constant regions (antibody, V domains shown)
# VH: EVQLQESGPSLVKPSQTLSLTCSVTGDSITSGYWNWIRKFPGNKLEYVGYISYSGGTYYNPSLKSRISITRDTSKNHYYLQLNSVTTEDTATYYCARGAYYGGAFFPYFDVWGAGTTVTVSS
# VL: DVQITQSPSFLAASPGETITINCRASKYISKHLVWYQEKPGETKKLLIYSGSTLQSGLPSRFSGSGSGTDFTLTISSLEPEDFAMYYCQQHNEYPLTFGAGTKLELK
# B3: C35 protein: control C35 protein coated at 2 μg/ml, positive control of the peptide ELISA (protein, UniProt Q9BRT3 2-112, looked up)
# Migration and invasion …: SGEPGQTSVAPPPEEVEPGSGVRIVVEYCEPCGFEATYLELASAVKEQYPGIEIESRLGGTGAFEIEINGQLVFSKLENGGFPYEKDLIEAIRRASNGETLEKITNSRPPC
# What was measured:
# Colau.C35 tumor cells = assay: Combination radioimmunotherapy and chemotherapy, second experiment (FIG. 6, Table 5); assay type: in vivo, Swiss nude mice
# Experimental: Swiss nude mice were grafted with Colau.C35 cells on day 0. Chemotherapy: Cisplatin administered at 2 mg/kg i.v. on days 15 & 18; 5FU/LV administered at 180/120 mg/kg i.v. on day 18. Radioimmunotherapy: 300 μCi (˜50 μg) of ^131I-labeled murine 1B3 anti-C35 IgG was administered on day 21.
# In a second experiment, the effect of combination radioimmunotherapy with ^131I labeled 1B3 anti-C35 monoclonal antibody and chemotherapy with cisplatin at 2 mg/kg on day 15 and 18 was tested in Swiss nude mice grafted with Colau.C35 tumor cells. Cispaltin was administered on days 15 and 18 following tumor graft. 300 μCi of ^131I-labeled 1B3 anti-C35 monoclonal antibody was administered on day 21. Tumor growth was followed for up to 10 weeks.
# In the same experiment, separate groups of Swiss nude mice grafted with Colau.C35 tumor cells were treated with either 5-FluoroUracil (5FU) at 180 mg/kg, together with Leucovorin (LV) at 120 mg/kg or this same chemotherapy regimen administered on day 18 followed by 300 μCi of ^131I-labeled 1B3 anti-C35 monoclonal antibody administered on day 21.
# [1] = nude mice, cited from earlier work
# [2] = system: rabbit anti-human C35 polyclonal antibody; assay: ELISA of rabbit C35 immune serum on C35 derived 15 amino acid peptides; assay type: binding
# From the text: Rabbit polyclonal antibodies were raised to recombinant C35 employing standard immunization methods well known in the art. Overlapping peptides 15 amino acids in length were synthesized corresponding to the 115 amino acid long C35 protein sequence beginning at each amino acid residue from 1 to 101. Peptides are named based on the C35 position of the amino terminus residue in each 15 amino acid peptide. In each peptide that overlapped the cysteine residues at positions 30, 33 and 112 of the natural C35 sequence, alanine was substituted for cysteine to avoid formation of disulfide crosslinked peptides.
# Wells of 96 well Maxisorp microtiter plates were coated with either 2 μg C35 protein, or 14 μg or 40 μg of the indicated 15 amino acid peptide derived from the C35 protein sequence and binding of antibodies in the rabbit C35 immune serum was determined as described in detail below. Data in Table 11, below, is shown for the positive and negative controls and for those C35 derived peptides for which positive binding was detected. Variations in the level of peptide binding can be due to either differences in the concentration of specific antibody species, differences in antibody affinity or a combination thereof.
# C35 peptide 15-mers in 100% DMSO, 10 mg/ml, were aliquotted into 1.5 ml tubes, 40 μg/tube, under sterile conditions, then speed vacuumed to remove DMSO. The peptides were resuspended in PBS, pH7.2, 1 ml/tube, mixed well and spun down. Each peptide concentration (“peptide solution”) was 40 μg/ml. Peptide solution should be stored at −20° C. until use. Once thawed, it should be kept at 4° C. for no more than 2 weeks.
# For 14 μg/ml peptide coated plates, 65 μl PBS, pH7.2 per well was added, followed by 35 μl peptide solution per well (for a total volume of 100 μl/well), and mixed well. For 40 μg/ml peptide coated plates, 100 μl of peptide solution was placed directly on the plate, 100 μl/well. Control C35 protein was diluted into PBS, pH7.2 to 2 μg/ml and added to the plates, 100 μl/well. Coated plates were incubated at room temperature for 2 hours, then 4° C. overnight.
# Each plate was washed 3 times on a plate washer. […] The secondary antibody, HRP (horseradish peroxidase conjugated goat anti-rabbit Fc polyclonal antibody from Zymed, was diluted at a 1:20,000 dilution into assay diluent and added to the plates, 100 μl/well. The plates were incubated at room temperature for 2 hours. Plates were washed 7 times on a plate washer. Substrate was added as per the kit manufacturers instructions and incubated at room temperature in the dark for 15 minutes. The reaction was stopped by adding 2N H2SO4, 100 μl/well. Absorbance at 450-570 nm was read immediately.
# [3] = biological target: T1, recombinant human C35 (rhC35) (Homo sapiens, UniProt Q9BRT3); assay: Epitope localization by Western blot of Lys-C digested rhC35; assay type: binding; details: native C35 sequence numbering; 1 μg/ml antibody
# T1 construct: made in house; host or cells: E. coli
# T1 sequence (Q9BRT3 1-115): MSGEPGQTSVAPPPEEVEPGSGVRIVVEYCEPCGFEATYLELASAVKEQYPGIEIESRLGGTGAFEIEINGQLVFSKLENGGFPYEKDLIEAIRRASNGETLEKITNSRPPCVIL
# From the text: (§1) To localize the epitope specificity of 1B3 and 1F2 antibodies, recombinant human C35 (rhC35) synthesized with a 6× His tag in E. coli was digested with Lys-C endoproteinase. This enzyme cuts after lysine (K) residues in the protein sequence. […] The full sequence of rhC35, including the amino terminal 6× His tag addition is shown. Amino acid positions are numbered relative to the amino terminal methionine (M) of the native human sequence. Note that digestion at the first and third lysine followed by negatively charged residues is inefficient and some longer combination fragments may be generated. Lys-C endoproteinase was added to purified rhC35 at a […] weight ratio and incubated for 18 hours at 37° C. in 25 mM Tris, pH 8.0. The digest was ethanol precipitated and resolubilized in reducing Tricine sample buffer. After heating 5 minutes at 100° C., samples were separated by electrophoresis on a 16% Tricine gel (Invitrogen). Peptides were transferred to PVDF membranes and the blots depicted in FIG. 10 were either stained with Coomassie blue (lanes 1-3 of both left and right panels) to detect all peptides or processed with one of the following: 1 μg/ml of the murine 1F2 anti-C35 antibody followed by alkaline phosphatase conjugated goat anti-mouse antibody (lane 4 of left panel); 1 μg/ml of the 1B3 anti-C35 immunoglobulin variable regions linked to human constant regions (MAb11) followed by alkaline phosphatase conjugated goat anti-human antibody (lane 5 of left panel); or anti-6× His tag mouse antibody (Amersham) followed by alkaline phosphatase conjugated goat anti-mouse antibody (lane 4 and 5 of right panel). BCIP/NBT substrate was added and developed to detect the secondary reagents. Molecular weight markers are indicated in the flanking lanes of both panels.
# (§2) In FIG. 10, the indicated band A migrates at the position of undigested rhC35. Note that band B stains with 1F2 but not MAb11 (1B3) anti-C35 antibody while band C stains with neither 1F2 nor MAb11 (1B3) antibody. Since bands B and C both do stain with anti-6× His tag antibody to the 6× His tag at the amino terminus of rhC35, it may be concluded that both fragments lack C-terminal peptide fragments. […] This epitope is not required for staining with 1F2.
# C35 protein [4] = biological target: T2, C35 protein (Homo sapiens, UniProt Q9BRT3); assay: Competitive binding ELISA; details: 1F2 versus 1B3
# T2 sequence (Q9BRT3 1-115): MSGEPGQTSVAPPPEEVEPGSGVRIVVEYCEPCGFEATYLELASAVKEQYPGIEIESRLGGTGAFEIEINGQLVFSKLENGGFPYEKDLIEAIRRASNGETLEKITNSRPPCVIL
# Experimental: (§3) Hybridoma cell lines IF2.4.1 and 1B3.6.1, specific for C35 polypeptides, were prepared using hybridoma technology. (Kohler et al., Nature 256:495 (1975); Kohler et al., Eur. J. Immunol. 6:511 (1976); Kohler et al., Eur. J. Immunol. 6:292 (1976); Hammerling et al., in: Monoclonal Antibodies and T-Cell Hybridomas, Elsevier, N.Y., pp. 571-681 (1981)). Briefly, hybridoma cell lines were generated using standard PEG fusion to the non-secreting myeloma cell line NS-1 (P3/NS1/1-AG4-1, ATCC #TIB-18) of splenocytes from BALB/c mice immunized with syngeneic BCA34 fibroblast tumor cells transduced to overexpress C35. Following PEG fusion to NS-1, the hybridomas were grown in methylcellulose semi-solid media. Approximately 2 weeks later, hybridoma colonies were isolated into 96 well plates and individual supernatants were tested for reactivity with C35 by ELISA, Western blot, and immunohistochemistry. Positive hybridomas colonies were subcloned and screened for reactivity twice to ensure clonality. Antibodies were isolated from hybridoma supernatants by protein G affinity purification using standard methods. […] In addition, we have developed intracellular staining flow cytometry assays for quantitative analysis using antibodies from hybridoma cell line 1F2 conjugated to Alexa-647 flourochrome. Each of these antibodies is distinct, yet both are specific for C35 protein. […]
# C35 protein [5] = biological target: T2, C35 protein; assay: ELISA and Western Blot of hybridoma antibodies; assay type: binding; details: ELISA and Western Blot assays
# Experimental: as §3
# [6] = biological target: T3, recombinant human C35 (rhC35) (Homo sapiens, UniProt Q9BRT3); assay: Epitope localization by Western blot of Lys-C digested rhC35; assay type: binding; details: Western blot, 1 μg/ml antibody
# T3 construct: made in house; host or cells: E. coli
# T3 sequence (Q9BRT3 1-52): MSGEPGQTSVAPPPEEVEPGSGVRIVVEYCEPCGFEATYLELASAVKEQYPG
# From the text: as §1, §2
# [7] = biological target: T4, recombinant human C35 (rhC35) (Homo sapiens, UniProt Q9BRT3); assay: as above; assay type: binding; details: Western blot, 1 μg/ml antibody; remark: listed apart in the source
# T4 construct: made in house; host or cells: E. coli
# T4 sequence (Q9BRT3 1-104): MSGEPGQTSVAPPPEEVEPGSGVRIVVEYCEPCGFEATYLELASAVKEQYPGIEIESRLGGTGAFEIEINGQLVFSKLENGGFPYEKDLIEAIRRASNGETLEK
# From the text: as §1, §2
# [8] = non-toxic dose at indicated schedule
# [9] = literature values (footnotes 3-5)
# [10] = 14 μg/ml peptide coated plates, 100 ng/ml primary antibody (C35 protein control coated at 2 μg/ml)
# [11] = 40 μg/ml peptide coated plates, 1 μg/ml primary antibody (C35 protein control coated at 2 μg/ml)
molecule,measurement,setting,value
"N.N.[Cl][Pt][Cl] [Cisplatin alone, cisplatin]",inhibition of Colau.C35 tumor growth,"Colau.C35 tumor cells; cisplatin 2 mg/kg days 15 and 18, 5FU/LV 180/120 mg/kg day 18, 300 μCi ^131I-1B3 day 21",some inhibition
same,LCK = Log Cell Kill = TDD/3.32,Colau.C35 tumor cells; same regimens,0.20
same,T−C = difference in time for treated and control tumors to reach a given volume,"Colau.C35 tumor cells; tumor volume 1200 mm^3, cisplatin 2 mg/kg days 15 and 18, 5FU/LV 180/120 mg/kg day 18, 300 μCi ^131I-1B3 day 21",5 days
same,TDD = Tumor doubling delay = T−C/tumor volume doubling time of untreated,"Colau.C35 tumor cells; tumor volume 1200 mm^3, same regimens",0.66
O=P1(N(CCCl)CCCl)NCCCO1 (centres unmarked) [Cyclophosphamide],Maximum Tolerated Dose,[1]; [8],No toxicity^2
Nc1ccn([C@@H]2O[C@H](CO)[C@@H](O)C2(F)F)c(=O)n1 [Gemcitabine],Maximum Tolerated Dose,[1]; [8],No toxicity^5
CCc1c2c(nc3ccc(OC(=O)N4CCC(N5CCCCC5)CC4)cc13)-c1cc3c(c(=O)n1C2)COC(=O)[C@]3(O)CC [Irinotecan],Maximum Tolerated Dose,[1]; [9],15 mg/kg
CCC1=C[C@@H]2CN(C1)Cc1c([nH]c3ccccc13)[C@@](C(=O)OC)(c1cc3c(cc1OC)N(C)[C@H]1[C@@](O)(C(=O)OC)[C@H](OC(C)=O)[C@]4(CC)C=CCN5CC[C@]31[C@@H]54)C2 [Vinorelbine],Maximum Tolerated Dose,[1]; [9],20 mg/kg
FPYEKDLLEAIRRAS [Peptide P83],Absorbance @ 450-570 nm,[2]; [10],0.025
same,Absorbance @ 450-570 nm,[2]; [11],0.19
B1,epitope specificity,[3],residues 105-115
same,epitope comparison by competition,C35 protein [4],bind different epitopes of the C35 protein
same,binding to recombinant C35 protein,C35 protein [5],specifically bind recombinant C35 protein
B2,staining of approximately 8 kDa band C (in addition lacks residues 53-104),[6],neither
same,staining of approximately 15 kDa band B (lacks C35 residues 105-115),[7],not
B3,Absorbance @ 450-570 nm,[2]; [10],3.765
same,Absorbance @ 450-570 nm,[2]; [11],3.5225
